Experimental data from patent US20230095695A1, “RNAS FOR COMPLEMENT INHIBITION” (Apellis Pharmaceuticals, Inc., priority 2020, published 2023).
Oligonucleotides are written 5' to 3', each unit as a sugar letter and its base; * is a phosphorothioate linkage, no mark a phosphodiester; rarer units and linkages stand in square brackets, end groups in braces. Plain capitals give the bases only. m = 2'-O-methyl; f = 2'-fluoro

Key:
[1] = tested on: C3 mRNA; assay: Dual dose screen, C3 mRNA knockdown in HepG2 cells (bDNA assay); format: cell-based, human; details: 24 h; for KD @ 0.1 nM: 0.1 nM siRNA; for KD @ 10 nM: 10 nM siRNA
Method: HepG2 cells were obtained from ATCC (ATCC in partnership with LGC Standards, Wesel, Germany, cat. #ATCC-HB-8065) and cultured in MEM Eagle (#M2279, Sigma-Aldrich, Germany), supplemented to contain 10% fetal calf serum (#1248D, Biochrom GmbH, Berlin, Germany), 1× non-essential amino acids (#K0293; Biochrom, Berlin, Germany), 4 mM L-Glutamine (#K0283, Biochrom, Berlin, Germany) and 100 U/ml Penicillin/100 μg/ml Streptomycin (#A2213, Biochrom GmbH, Berlin, Germany) at 37° C. in an atmosphere with 5% C02 in a humidified incubator.
For transfection of HepG2 cells with siRNAs, cells were seeded at a density of 15,000 cells/well into collagen-coated 96-well tissue culture plates (#655150, GBO, Germany). Transfection of siRNA was carried out with Lipofectamine RNAiMax (Invitrogen/Life Technologies, Karlsruhe, Germany) according to manufacturer's instructions for reverse transfection directly after seeding. In this experiment, a dual dose screen was performed with siRNAs in quadruplicates at 10 nM and 0.1 nM, respectively. siRNAs targeting Aha1 served at the same time as an unspecific control for C3 target mRNA expression and as a positive control to analyze transfection efficiency with regards to Aha1 mRNA level. Firefly-Luciferase and Renilla-Luciferase was used as a mock transfection.
After 24 h of incubation with siRNAs, medium was removed and cells were lysed in 150 μl Medium-Lysis Mixture (1 volume lysis mixture, 2 volumes cell culture medium) and then incubated at 53° C. for 30 minutes. bDNA assay (ThermoFisher QuantiGene RNA assays) was performed according to manufacturer's instructions with a probeset directed to human C3 (accession-#NM_000064 between base 106 and base 907 of the sequence) which had been designed by ThermoFisher Scientific, and synthesized by Metabion International AG, Planegg, Germany. Luminescence was read using 1420 Luminescence Counter (WALLAC VICTOR Light, Perkin Elmer, Rodgau-Jugesheim, Germany) following 30 minutes incubation at room temperature in the dark.
Aha1-siRNA served as an unspecific control for C3 mRNA expression and as a positive control to analyze the transfection efficiency by measuring Aha1 mRNA level by hybridization with an Aha1 probeset. The Aha-1 siRNA used had been formerly selected from a big set of candidate siRNAs, and is known to be very active in vitro and in vivo. Transfection efficiency for each 96-well plate was calculated by analysis of Aha1-knock-down with Aha1-siRNA (normalized to GapDH) compared to an unspecific control. […] Transfection efficiency with siAha1 at the 10 nM dose was about 90%, and the transfection efficiency at the 0.5 nM dose was about 85%.
Activity of the siRNAs was measured by the fluorescence or percent mRNA concentration of the respective targets. For each well, the target mRNA level was normalized to the respective GAPDH mRNA level. The activity of a given siRNA was expressed as percent mRNA concentration of the respective target (normalized to GAPDH mRNA) in treated cells, relative to the target mRNA concentration (normalized to GAPDH mRNA) averaged across control wells.

[2] = tested on: C3 mRNA; assay: Dose response experiments (DRC) of modification variants, C3 mRNA knockdown in HepG2 cells; format: cell-based, human; details: for IC50 / IC80: 10 concentrations from 100 nM in 6-fold dilution steps; for Max KD: DRC experiments
Method: HepG2 cells were obtained from ATCC (ATCC in partnership with LGC Standards, Wesel, Germany, cat. #ATCC-HB-8065) and cultured in MEM Eagle (#M2279, Sigma-Aldrich, Germany), supplemented to contain 10% fetal calf serum (#1248D, Biochrom GmbH, Berlin, Germany), 1× non-essential amino acids (#K0293; Biochrom, Berlin, Germany), 4 mM L-Glutamine (#K0283, Biochrom, Berlin, Germany) and 100 U/ml Penicillin/100 μg/ml Streptomycin (#A2213, Biochrom GmbH, Berlin, Germany) at 37° C. in an atmosphere with 5% CO2 in a humidified incubator.
siRNAs were designed and synthesized based on the nucleotide sequence of the top siRNAs in terms of activity from Examples 1 and 2 (siRNA ID: 1, 4, 9, 10, 16, and 22) with different modification patterns. 5 “variants” were designed and synthesized for each of the top siRNA nucleotide sequences, and each duplex is identified as “variant1”, “variant2”, “variant3”, variant4”, “variant5” depending on which modifications were made. siRNAs from Examples 1 and 2 (siRNA ID: 1, 4, 9, 10, 16, and 22) are identified as “variant0”.
Transfection of siRNA was carried out with Lipofectamine RNAiMax (Invitrogen/Life Technologies, Karlsruhe, Germany) according to manufacturer's instructions for reverse transfection.
Each siRNA was tested using dose response experiments (DRC) in HepG2 cells. Two additional siRNAs (siRNA ID 26 and 27), known to knockdown C3 expression, were used as positive controls.
Dose-response experiments were done with siRNA in 10 concentrations transfected in quadruplicates, starting at 100 nM in 6-fold dilutions steps down to ˜10 fM. Mock transfected cells served as negative controls.
For each well, the target mRNA level was normalized to the respective GAPDH mRNA level. The activity of a given siRNA was expressed as percent mRNA concentration of the respective target (normalized to GAPDH mRNA) in treated cells, relative to the target mRNA concentration (normalized to GAPDH mRNA) averaged across mock transfected wells (DRCs).

1 (sense mU*mC*fAmAmCmUfCfAfCmCmUfGmUmAmAmUfAmAmA; antisense mU*fU*mUmAmUmUmAmCmAmGmGmUmGfAmGmUmUmGmA*mU*mU; siRNA) [compound 1]
KD @ 0.1 nM [1]: 68%
KD @ 10 nM [1]: 92%
IC50 [2]: 0.345 nM
IC80 [2]: 2.2 nM
Max KD [2]: 84%

4 (sense mU*mC*fCmAmAmGfCfCfUmUmGfGmCmUmCmAfAmUmA; antisense mU*fA*mUmUmGmAmGmCmCmAmAmGmGfCmUmUmGmGmA*mU*mU; siRNA) [compound 4]
KD @ 0.1 nM [1]: 66%
KD @ 10 nM [1]: 94%
IC50 [2]: 0.179 nM
IC80 [2]: 0.885 nM
Max KD [2]: 91%

9 (sense mA*mU*fCmGmGmAfUfCfUmUmCfAmCmCmGmUfCmAmA; antisense mU*fU*mGmAmCmGmGmUmGmAmAmGmAfUmCmCmGmAmU*mU*mU; siRNA) [compound 9]
KD @ 0.1 nM [1]: 63%
KD @ 10 nM [1]: 91%
IC50 [2]: 0.21 nM
IC80 [2]: 1.32 nM
Max KD [2]: 90%

10 (sense mU*mC*fAmAmCmUfUfCfCmUmCfCmUmGmCmGfAmAmA; antisense mU*fU*mUmCmGmCmAmGmGmAmGmGmAfAmGmUmUmGmA*mU*mU; siRNA) [compound 10]
KD @ 0.1 nM [1]: 84%
KD @ 10 nM [1]: 88%
IC50 [2]: 0.024 nM
IC80 [2]: 2.8 nM
Max KD [2]: 90%

16 (sense mC*mA*fAmUmGmAfCfUfUmUmGfAmCmGmAmGfUmAmA; antisense mU*fU*mAmCmUmCmGmUmCmAmAmAmGfUmCmAmUmUmG*mU*mU; siRNA) [compound 16]
KD @ 0.1 nM [1]: 67%
KD @ 10 nM [1]: 92%
IC50 [2]: 0.315 nM
IC80 [2]: 6.53 nM
Max KD [2]: 83%

22 (sense mC*mC*fAmAmCmUfAfCfAmUmGfAmAmCmCmUfAmCmA; antisense mU*fG*mUmAmGmGmUmUmCmAmUmGmUfAmGmUmUmGmG*mU*mU; siRNA) [compound 22]
KD @ 0.1 nM [1]: 67%
KD @ 10 nM [1]: 93%
C3 knockdown, comparison among modification variants of the same nucleotide sequence [2]: most effective in C3 knockdown
IC50 [2]: 0.054 nM
IC80 [2]: 0.475 nM
Max KD [2]: 91%
